# Read-outs that look alike come from different tables or passages of the source.
# Experiments:
# [1] = tested on: SH-SP rats with MCA permanent occlusion; test: Cerebral infarct lesion and brain edema after ginsenoside Rb1 (intravenous or intracerebroventricular); type: in vivo, rat; conditions: intravenous 6 μg/day for 28 days after MCA permanent occlusion
# Experimental: Male SH-SP rats, at the age of 12-13 weeks, were used. Animals were bred in a room furnished with 12 hours light and dark cycles and water and feeds were supplied ad libitum. The cortical branch of the left middle cerebral artery (MCA) of SH-SP rats were coagulated and cut under inhalation anesthesia. Immediately after MCA permanent occlusion, ginsenoside Rb1 dissolved in physiological saline was infused once intravenously (6 μg or 60 μg), subsequently intravenously infused continuously for 28 days by using an Alza osmotic minipump (6 μg/day or 60 μg/day).
# At 32 days after MCA permanent occlusion, the SH-SP rats were anesthetized with chloral hydrate, and they were perfused and fixed transcardially with 0.1 mole phosphate buffer containing 4% paraformaldehyde. The brains were dissected out and cerebrocortical infarct lesions were photographed.
# In Japanese Patent Application No. Hei 10-365560, PCT/JP99/02550 (Brain cell or nerve cell-protective agents comprising ginsenoside Rb1), Japanese Patent Application No. Hei 11-340850, PCT/JP99/06804 (Cerebrovascular regeneration/reconstruction promoters and nerve tissue secondary degeneration inhibitors comprising ginsenoside Rb1), the present inventors (Sakanaka and Tanaka) measured areas of the left cerebral hemispheres and the left cerebrocortical infarct lesions on the photographs by using an image analyzer. […]
# [2] = tested on: Bcl-xL; test: Bcl-xL expression in primary cultured oligodendrocytes (RT-PCR, immunoblotting); type: cell-based, rat
# Experimental: In order to investigate whether ginsenoside Rb1 enhances the expression of Bcl-xL in oligodendrocytes or not, for example, ginsenoside Rb1 at the concentrations from 1 fg/ml to 10 pg/ml was added to the primary cultured rat oligodendrocytes. After culture for 6 hours, total RNA was extracted and Bcl-xL mRNA was assayed by RT-PCR. β-actin mRNA was used as an internal standard of RT-PCR. Further, a part of oligodendrocytes was used as a sample for SDS electrophoresis after treatment with ginsenoside Rb1, and anti-apoptotic factor Bcl-xL in the culture well was examined by immunoblotting (Western blotting). Oligodendrocytes were isolated from the mixed brain cell culture by using the forebrain of newborn rats.
# In order to investigate whether ginsenoside Rb1 enhances the expression of Bcl-xL in oligodendrocytes or not, for example, ginsenoside Rb1 at the concentration from 1 fg/ml to 10 pg/ml was added to the primary cultured rat oligodendrocytes. After culture for 6 hours, Total RNA was extracted and Bcl-xL mRNA was assayed by RT-PCR. β-actin mRNA was used as an internal standard of RT-PCR. Further, a part of oligodendrocytes was used as a sample for SDS electrophoresis after treating with ginsenoside Rb1, and the amount of anti-apoptotic factor Bcl-xL in the culture well was examined by immunoblotting (Western blotting). The mixed brain cell culture was initiated to isolate oligodendrocytes by using the forebrain of newborn rats.
# [3] = tested on: gerbils with transient forebrain ischemia (hippocampal CA1 neurons); conditions: cited from earlier work
# [4] = tested on: SH-SP rats with MCA permanent occlusion; conditions: cited from earlier work
# [5] = intravenous administration (Saito et al. 1980); cited from earlier work
# [6] = Cerebral blood flow, brain temperature, blood pressure; conditions: intravenous infusion 60 μg/day
structure (smiles),measurement,setting,value
CC(C)=CCC[C@](C)(O[C@@H]1O[C@H](CO[C@@H]2O[C@H](CO)[C@@H](O)[C@H](O)[C@H]2O)[C@@H](O)[C@H](O)[C@H]1O)[C@H]1CC[C@]2(C)[C@@H]1[C@H](O)C[C@@H]1[C@@]3(C)CC[C@H](O[C@@H]4O[C@H](CO)[C@@H](O)[C@H](O)[C@H]4O[C@@H]4O[C@H](CO)[C@@H](O)[C@H](O)[C@H]4O)C(C)(C)[C@@H]3CC[C@]12C [ginsenoside Rb1],difference in size between left and right cerebral hemisphere (brain edema),[1],no difference in size
same,cerebral infarct lesions (photographs at 32 days),[1]; all 8 cases,obviously reduced
same,expression of Bcl-xL mRNA in oligodendrocytes,"[2]; 100 fg/ml, 6 hours, RT-PCR",obviously enhanced
same,concentrations increasing Bcl-xL protein expression in oligodendrocytes,[2]; FIG. 23,1 to 100 fg/mL
same,Bcl-xL protein in oligodendrocytes,[2]; immunoblotting after ginsenoside Rb1 addition,increased
same,delayed neuronal death and learning disability,[3]; intracerebroventricular infusion immediately after 3 or 3.5 minute occlusion,suppressed
same,delayed neuronal death and learning disability,[3]; intraperitoneal 10 or 20 mg/kg once a day for one week in advance of 5-minute occlusion,significantly prevent
same,nerve cells in the hippocampal CA1 area rescued,[3]; intraperitoneal 10 or 20 mg/kg/day before cerebral ischemia,approximately 30%
same,effect on delayed neuronal death,[3]; intraperitoneal immediately after 3- or 5-minute occlusion of common carotid arteries,no effect
same,cerebral infarction (infarcted area in the cerebral cortex),[4]; intracerebroventricular administration after permanent MCA occlusion,significant reduction
same,secondary lesion (degeneration) of the thalamus,[4]; intravenous 6 or 60 μg/day,significantly inhibits
same,mean ratio of cerebrocortical infarction compared with saline group,[4]; intravenous ginsenoside Rb1 (prior applications),≤ 50%
same,cerebral vessels destroyed after MCA permanent occlusion,[4]; intravenous infusion for 28 days,regenerated and reconstructed
same,cerebral infarct area relative to non-administered group,[4]; repetitive or continuous intravenous 6 μg or 60 μg/day,about ¼
same,volume/size of cerebral infarct lesion relative to saline (non-administered) group,[4]; repetitive or continuous intravenous 6 or 60 μg/day for 28 days after MCA permanent occlusion (prior applications),about ¼
same,reduction of the volume of the cerebral infarct lesions vs control group,[4]; repetitive or continuous intravenous low doses after permanent MCA occlusion,~75%
same,LD50,[5],approximately 448 mg/kg
same,cerebral blood flow,[6],does not affect

# — US7235267B1, “Brain cell or nerve cell-protecting agents comprising medicinal ginseng” (priority 1999, dated 2007)
